The results in this text go back to ChEMBL document CHEMBL1201862, “PubChem BioAssay data set” (2004).

Activity calls are given as the source filed them. Bounds are passed on as bounds.

In general, EC50 refers to the concentration needed to bring the measured effect to its halfway point. As a reminder, the AC50 is the concentration giving half of the maximal activity seen.

Experiment [1] deals with Streptococcus sp. 'group A'. The experiment in a line: growth inhibition of control SK(-) GAS strain, dose response, counter-screen for streptokinase expression inhibitor project, luminescence, kanamycin, BacTiterGlo, confirmation (AID 1900). Format: functional, organism-based. Background: Counterscreens check selectivity or assay interference.
The target in experiment [2] is DNA (cytosine-5)-methyltransferase 1 (Homo sapiens, UniProt P26358). The experiment in a line: DNMT1 methyltransferase inhibitors, confirmation, biochemical, fluorescent molecular beacon (AID 602386). Format: functional.
The next experiment concerns Streptococcus. The experiment in a line: Group A Streptococcus viability loss, dose response, counter-screen for streptokinase expression inhibitor project, luminescence, BacTiterGlo (AID 1915).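 Also: potency for reduction of bacterial viability or growth.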 Format: functional, organism-based.
Experiment [3] can be described thus: Luminescence Cell-Based Dose Retest to Confirm Inhibitors of Cancer Stem Cells. [Related pubchem assays (depositor defined):AID2717, AID2721]. Format: functional. The following applies: Homo sapiens.
For experiment [4], the target named is Induced myeloid leukemia cell differentiation protein Mcl-1 (Homo sapiens, UniProt Q07820). Format: functional.
Experiment [5] deals with T1, Sentrin-specific protease 7 (Homo sapiens, UniProt Q9BQF6).
T1 sequence (Q9BQF6 whole entry): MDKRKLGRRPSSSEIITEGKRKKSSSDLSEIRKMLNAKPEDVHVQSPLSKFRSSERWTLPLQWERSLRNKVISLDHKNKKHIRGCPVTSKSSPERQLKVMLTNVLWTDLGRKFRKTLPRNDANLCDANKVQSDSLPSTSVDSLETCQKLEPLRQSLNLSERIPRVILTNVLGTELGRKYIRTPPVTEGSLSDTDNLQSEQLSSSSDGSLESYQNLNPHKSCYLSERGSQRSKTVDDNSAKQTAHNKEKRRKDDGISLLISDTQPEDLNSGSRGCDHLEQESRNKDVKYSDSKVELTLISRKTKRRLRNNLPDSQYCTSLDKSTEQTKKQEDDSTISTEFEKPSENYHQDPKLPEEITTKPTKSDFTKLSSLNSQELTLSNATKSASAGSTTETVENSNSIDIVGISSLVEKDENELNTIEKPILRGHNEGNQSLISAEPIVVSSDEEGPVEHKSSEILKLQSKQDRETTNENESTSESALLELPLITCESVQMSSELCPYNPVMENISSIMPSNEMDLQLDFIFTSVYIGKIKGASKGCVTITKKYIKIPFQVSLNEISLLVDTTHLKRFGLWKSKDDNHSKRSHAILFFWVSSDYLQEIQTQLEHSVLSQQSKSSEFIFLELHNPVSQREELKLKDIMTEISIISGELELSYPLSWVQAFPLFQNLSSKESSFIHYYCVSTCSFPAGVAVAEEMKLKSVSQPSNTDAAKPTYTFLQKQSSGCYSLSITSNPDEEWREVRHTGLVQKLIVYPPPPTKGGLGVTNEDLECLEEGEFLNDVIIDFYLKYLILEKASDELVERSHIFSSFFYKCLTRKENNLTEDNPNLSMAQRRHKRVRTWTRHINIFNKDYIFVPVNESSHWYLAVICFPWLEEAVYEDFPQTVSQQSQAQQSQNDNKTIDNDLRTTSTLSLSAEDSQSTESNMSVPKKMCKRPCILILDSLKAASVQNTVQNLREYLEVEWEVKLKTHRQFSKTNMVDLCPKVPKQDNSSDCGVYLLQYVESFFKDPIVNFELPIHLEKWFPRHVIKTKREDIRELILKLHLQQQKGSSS
Description: SENP7 protease inhibitors, SAR follow-up, biochemical, luminescence (AID 504497). Format: functional.

The target of experiment [6] is T2, Sentrin-specific protease 8 (Homo sapiens, UniProt Q96LD8).
T2 sequence (Q96LD8 whole entry): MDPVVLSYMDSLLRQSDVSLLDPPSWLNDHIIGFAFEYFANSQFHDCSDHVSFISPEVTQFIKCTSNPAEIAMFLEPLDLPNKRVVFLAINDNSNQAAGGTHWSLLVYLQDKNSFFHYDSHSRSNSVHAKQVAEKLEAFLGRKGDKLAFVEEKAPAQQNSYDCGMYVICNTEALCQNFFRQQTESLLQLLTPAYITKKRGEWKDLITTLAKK
Description: SENP8 protease inhibitors, SAR follow-up, biochemical, luminescence (AID 504501). In kind it is functional.

The target in a further experiment is T3, Caspase-3 (Homo sapiens, UniProt P42574).
T3 sequence (P42574 whole entry): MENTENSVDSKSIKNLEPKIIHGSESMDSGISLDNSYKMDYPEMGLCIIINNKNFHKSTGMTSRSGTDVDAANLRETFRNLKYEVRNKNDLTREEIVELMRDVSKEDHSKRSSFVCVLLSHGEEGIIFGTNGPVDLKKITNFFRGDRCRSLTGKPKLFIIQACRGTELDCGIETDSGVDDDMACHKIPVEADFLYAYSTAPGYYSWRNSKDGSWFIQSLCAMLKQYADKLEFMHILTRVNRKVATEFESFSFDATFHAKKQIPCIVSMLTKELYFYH
The experiment in a line: SAR Analysis of small molecule inhibitors of Sentrin-specific proteases (SENPs) using a Caspase-3 Selectivity assay. [Related pubchem assays (depositor defined):AID2540, AID2599, AID434973, AID489001]. In kind it is functional.

The target of experiment [7] is T4, Sentrin-specific protease 6 (Homo sapiens, UniProt Q9GZR1).
T4 sequence (Q9GZR1 whole entry): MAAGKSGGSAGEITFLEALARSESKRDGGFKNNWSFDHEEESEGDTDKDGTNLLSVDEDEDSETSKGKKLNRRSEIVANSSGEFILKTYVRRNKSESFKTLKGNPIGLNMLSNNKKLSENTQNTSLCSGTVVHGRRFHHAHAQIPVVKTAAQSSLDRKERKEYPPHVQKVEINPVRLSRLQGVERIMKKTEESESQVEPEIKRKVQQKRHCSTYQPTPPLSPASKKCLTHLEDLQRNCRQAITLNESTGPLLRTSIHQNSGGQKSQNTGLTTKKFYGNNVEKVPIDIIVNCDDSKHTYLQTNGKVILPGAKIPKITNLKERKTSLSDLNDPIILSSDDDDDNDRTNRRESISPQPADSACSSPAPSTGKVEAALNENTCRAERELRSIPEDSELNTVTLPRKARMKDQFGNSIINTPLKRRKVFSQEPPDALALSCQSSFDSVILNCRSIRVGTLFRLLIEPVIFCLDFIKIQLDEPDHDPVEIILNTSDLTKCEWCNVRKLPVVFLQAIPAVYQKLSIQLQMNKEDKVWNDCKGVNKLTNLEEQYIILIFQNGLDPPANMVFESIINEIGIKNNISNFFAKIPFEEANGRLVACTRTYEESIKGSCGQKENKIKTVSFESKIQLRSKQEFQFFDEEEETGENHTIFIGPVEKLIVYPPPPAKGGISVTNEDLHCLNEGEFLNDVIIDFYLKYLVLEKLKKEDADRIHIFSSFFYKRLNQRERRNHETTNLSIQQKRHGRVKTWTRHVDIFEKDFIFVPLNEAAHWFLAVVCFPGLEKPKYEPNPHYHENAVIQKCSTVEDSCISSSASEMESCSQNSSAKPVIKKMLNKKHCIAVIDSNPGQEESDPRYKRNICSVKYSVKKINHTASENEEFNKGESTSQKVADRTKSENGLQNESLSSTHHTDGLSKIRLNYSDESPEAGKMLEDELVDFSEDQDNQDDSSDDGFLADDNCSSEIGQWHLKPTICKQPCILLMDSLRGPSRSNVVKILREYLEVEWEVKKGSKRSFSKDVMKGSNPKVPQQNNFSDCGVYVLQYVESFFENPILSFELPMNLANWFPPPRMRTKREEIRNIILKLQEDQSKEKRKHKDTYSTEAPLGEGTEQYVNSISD
The experiment in a line: SAR Analysis of small molecule inhibitors of Sentrin-specific protease 6 (SENP6) using a Luminescent assay. [Related pubchem assays (depositor defined):AID2582, AID2599]. In kind it is functional.

For another experiment, the target named is T5, Aminopeptidase N (Plasmodium falciparum FcB1/Columbia, UniProt O96935).
T5 sequence (O96935 whole entry): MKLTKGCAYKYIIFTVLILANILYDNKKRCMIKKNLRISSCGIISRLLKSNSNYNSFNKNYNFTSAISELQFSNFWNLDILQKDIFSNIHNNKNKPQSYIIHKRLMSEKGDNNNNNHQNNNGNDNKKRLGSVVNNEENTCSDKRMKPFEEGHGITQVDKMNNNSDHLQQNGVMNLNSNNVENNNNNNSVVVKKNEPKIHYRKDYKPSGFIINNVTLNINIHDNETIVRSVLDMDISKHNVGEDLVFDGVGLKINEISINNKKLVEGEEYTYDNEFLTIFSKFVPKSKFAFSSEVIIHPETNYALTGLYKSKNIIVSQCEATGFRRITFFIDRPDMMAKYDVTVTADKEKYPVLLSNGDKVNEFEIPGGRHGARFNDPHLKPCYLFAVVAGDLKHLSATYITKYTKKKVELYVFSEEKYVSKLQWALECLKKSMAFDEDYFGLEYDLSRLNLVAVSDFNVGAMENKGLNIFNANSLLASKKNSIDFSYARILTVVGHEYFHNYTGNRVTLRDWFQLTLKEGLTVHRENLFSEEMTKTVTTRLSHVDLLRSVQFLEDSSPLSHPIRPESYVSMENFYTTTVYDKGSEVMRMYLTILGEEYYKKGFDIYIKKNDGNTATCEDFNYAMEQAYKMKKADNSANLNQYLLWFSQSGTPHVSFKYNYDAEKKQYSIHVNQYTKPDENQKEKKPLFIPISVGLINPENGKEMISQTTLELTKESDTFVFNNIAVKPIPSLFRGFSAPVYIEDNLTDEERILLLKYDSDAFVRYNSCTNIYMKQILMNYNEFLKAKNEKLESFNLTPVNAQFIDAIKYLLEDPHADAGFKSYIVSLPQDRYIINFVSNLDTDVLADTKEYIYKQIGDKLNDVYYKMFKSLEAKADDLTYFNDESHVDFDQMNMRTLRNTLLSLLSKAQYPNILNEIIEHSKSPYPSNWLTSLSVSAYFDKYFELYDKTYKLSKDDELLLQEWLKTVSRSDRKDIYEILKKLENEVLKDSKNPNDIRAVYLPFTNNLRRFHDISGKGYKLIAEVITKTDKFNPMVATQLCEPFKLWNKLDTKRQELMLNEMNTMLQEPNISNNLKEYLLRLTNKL
The experiment in a line: P. falciparum M1AAP inhibitors, biochemical, fluorogenic H-Leu-NHMec substrate, 1536-well (AID 1445). Also on record: species or system Plasmodium falciparum 3D7, 3D7.

Experiment [8] addresses T6, Estrogen receptor beta (Homo sapiens, UniProt Q92731). Description: ERβ–SRC-3 coactivator interaction inhibitors, confirmation, orthogonal assay, biochemical, ELISA, streptavidin-HRP readout (AID 1060). Background: An ELISA detects its analyte on a solid surface through an enzyme-linked reagent.
The target of experiment [9] is T7, Probable nicotinate-nucleotide adenylyltransferase (Staphylococcus aureus (strain N315), UniProt P65502). Format: functional, Staphylococcus aureus subsp. aureus N315.
The target in experiment [10] is T7, Probable nicotinate-nucleotide adenylyltransferase. Format: functional, Staphylococcus aureus subsp. aureus N315. Conditions: read-out: IC50_Mean.
For experiment [11], the target named is T6, Estrogen receptor beta.
Another experiment has as its target T8, Interleukin-8 (Homo sapiens, UniProt P10145).
T8 sequence (P10145 whole entry): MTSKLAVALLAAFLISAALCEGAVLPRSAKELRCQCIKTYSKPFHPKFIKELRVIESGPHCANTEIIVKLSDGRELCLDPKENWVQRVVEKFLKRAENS
Description: Dose Response confirmation of uHTS small molecule hits for cystic fibrosis induced NFkb Inhibitors in a PAF-induced IL8 counterscreen. In kind it is functional. The following applies: read-out: IC50_Mean.

In a further experiment the target is Protein Wnt-3a (Mus musculus, UniProt P27467). The experiment in a line: Wnt3a-driven reporter signaling inhibition, dose response, selectivity assay for Gli-SUFU antagonist project, Wnt-LIGHT cells, luminescence (AID 651570).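 Also: Wnt-LIGHT reporter cells stimulated with conditioned medium from Wnt3a-producing cells.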 Format: functional. Conditions: read-out: IC50_Mean.
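For AC50 in this document: cells exposed to compound for roughly 70 hours or longer before luminescence read.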

T7 sequence (P65502 whole entry): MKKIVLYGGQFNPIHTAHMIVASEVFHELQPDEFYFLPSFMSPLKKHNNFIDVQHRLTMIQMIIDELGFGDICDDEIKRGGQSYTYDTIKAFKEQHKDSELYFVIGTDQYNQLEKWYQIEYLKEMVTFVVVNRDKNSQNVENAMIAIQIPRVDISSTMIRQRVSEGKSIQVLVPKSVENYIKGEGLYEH
T6 sequence (Q92731 whole entry): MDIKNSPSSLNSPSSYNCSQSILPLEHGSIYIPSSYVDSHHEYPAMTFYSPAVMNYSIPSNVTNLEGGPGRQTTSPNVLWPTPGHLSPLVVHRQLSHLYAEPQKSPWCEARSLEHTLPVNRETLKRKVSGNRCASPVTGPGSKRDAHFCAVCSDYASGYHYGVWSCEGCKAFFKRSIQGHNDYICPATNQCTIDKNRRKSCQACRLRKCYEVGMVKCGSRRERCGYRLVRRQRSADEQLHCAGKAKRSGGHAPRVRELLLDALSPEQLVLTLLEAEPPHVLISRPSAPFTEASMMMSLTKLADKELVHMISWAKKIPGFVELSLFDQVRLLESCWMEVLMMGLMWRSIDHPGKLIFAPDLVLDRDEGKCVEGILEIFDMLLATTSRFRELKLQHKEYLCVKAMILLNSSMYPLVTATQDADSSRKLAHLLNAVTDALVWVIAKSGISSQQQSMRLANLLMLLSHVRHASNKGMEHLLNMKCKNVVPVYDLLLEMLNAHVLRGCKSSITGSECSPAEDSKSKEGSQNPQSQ
Sequence of Protein Wnt-3a (P27467 whole entry): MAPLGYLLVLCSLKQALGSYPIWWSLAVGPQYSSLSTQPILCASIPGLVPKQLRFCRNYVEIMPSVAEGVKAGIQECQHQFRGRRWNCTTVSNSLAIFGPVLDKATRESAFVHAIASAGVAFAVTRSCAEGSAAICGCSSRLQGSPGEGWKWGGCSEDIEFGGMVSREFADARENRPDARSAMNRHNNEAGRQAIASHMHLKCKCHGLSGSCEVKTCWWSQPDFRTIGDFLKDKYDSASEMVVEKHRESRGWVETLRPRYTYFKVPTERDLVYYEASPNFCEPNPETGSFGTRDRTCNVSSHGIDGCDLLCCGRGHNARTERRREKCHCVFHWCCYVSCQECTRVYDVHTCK
Sequence of DNA (cytosine-5)-methyltransferase 1 (P26358 whole entry): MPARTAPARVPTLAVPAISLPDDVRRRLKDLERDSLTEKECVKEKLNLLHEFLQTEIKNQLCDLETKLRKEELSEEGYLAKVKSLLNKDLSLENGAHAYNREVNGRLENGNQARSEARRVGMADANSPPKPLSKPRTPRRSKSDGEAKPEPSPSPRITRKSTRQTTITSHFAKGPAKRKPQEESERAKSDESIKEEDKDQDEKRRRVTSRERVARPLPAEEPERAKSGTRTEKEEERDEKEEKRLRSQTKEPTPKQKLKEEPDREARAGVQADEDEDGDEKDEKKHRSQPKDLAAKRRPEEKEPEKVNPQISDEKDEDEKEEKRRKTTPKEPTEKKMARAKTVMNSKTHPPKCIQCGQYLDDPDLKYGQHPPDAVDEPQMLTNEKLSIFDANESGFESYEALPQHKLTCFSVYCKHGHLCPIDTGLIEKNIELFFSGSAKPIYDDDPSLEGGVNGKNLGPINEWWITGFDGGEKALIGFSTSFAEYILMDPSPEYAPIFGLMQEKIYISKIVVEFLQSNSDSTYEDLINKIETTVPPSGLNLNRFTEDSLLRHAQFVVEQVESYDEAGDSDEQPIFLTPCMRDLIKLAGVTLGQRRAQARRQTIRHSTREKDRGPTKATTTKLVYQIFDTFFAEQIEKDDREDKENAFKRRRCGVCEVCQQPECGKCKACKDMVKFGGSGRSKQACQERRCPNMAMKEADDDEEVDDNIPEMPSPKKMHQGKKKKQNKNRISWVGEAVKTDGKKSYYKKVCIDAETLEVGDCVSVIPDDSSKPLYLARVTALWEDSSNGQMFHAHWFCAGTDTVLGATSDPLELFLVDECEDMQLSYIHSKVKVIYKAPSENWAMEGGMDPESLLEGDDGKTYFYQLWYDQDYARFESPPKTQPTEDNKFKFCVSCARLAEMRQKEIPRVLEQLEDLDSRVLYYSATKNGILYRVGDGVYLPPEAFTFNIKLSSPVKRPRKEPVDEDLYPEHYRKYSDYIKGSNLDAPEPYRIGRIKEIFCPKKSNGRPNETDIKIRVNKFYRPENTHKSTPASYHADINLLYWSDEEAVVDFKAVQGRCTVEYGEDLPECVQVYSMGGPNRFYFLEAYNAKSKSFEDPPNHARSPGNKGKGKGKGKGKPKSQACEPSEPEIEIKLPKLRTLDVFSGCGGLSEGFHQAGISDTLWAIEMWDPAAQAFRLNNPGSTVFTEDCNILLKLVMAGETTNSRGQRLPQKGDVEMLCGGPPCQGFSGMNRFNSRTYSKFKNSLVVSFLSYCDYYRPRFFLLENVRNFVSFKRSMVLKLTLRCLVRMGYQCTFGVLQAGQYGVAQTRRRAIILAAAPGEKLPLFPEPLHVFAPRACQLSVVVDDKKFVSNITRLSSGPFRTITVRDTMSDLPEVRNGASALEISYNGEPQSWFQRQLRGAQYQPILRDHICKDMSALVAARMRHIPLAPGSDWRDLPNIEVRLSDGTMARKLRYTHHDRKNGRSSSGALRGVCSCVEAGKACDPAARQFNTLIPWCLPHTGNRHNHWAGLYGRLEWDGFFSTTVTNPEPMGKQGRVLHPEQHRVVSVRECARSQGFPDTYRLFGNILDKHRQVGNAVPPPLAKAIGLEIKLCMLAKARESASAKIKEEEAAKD
Sequence of Induced myeloid leukemia cell differentiation protein Mcl-1 (Q07820 whole entry): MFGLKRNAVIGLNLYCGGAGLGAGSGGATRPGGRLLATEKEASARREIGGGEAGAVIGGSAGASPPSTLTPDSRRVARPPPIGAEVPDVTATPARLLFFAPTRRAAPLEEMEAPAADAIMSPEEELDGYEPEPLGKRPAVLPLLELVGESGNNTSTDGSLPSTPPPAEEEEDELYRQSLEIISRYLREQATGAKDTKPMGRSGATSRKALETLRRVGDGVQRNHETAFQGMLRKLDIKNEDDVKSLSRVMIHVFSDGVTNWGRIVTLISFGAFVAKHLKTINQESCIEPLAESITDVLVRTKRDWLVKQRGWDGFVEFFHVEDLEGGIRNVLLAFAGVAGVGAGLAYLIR

Consider `COc1ccc(/C=C2/C(=O)N(c3nc4ccccc4s3)N=C2CSc2ccc(Cl)cc2)cc1`, for which the EC50 in [1] is 0.647 µM (active); with Streptococcus it was 3.65 µM (active). The figures for the IC50 in experiment [2] and in [4] were 2.86 µM (active) and 1.69 µM (active), respectively. In [3], the AC50 is 3.01 µM (active).
With `O=C(Nc1nc2ccc(NS(=O)(=O)c3ccc(Cl)s3)cc2s1)c1ccccc1`, the IC50 was 2.65 µM (active) in experiment [5], 3.34 µM (active) in [6], 12 µM (active) on Caspase-3 and 2.95 µM (active) in [7].
For `CCOc1ccc2nc(NC(=O)c3ccc(NS(=O)(=O)c4cccs4)cc3)sc2c1` the same measures were 46.5 µM (active), > 99 µM (inactive), > 99 µM (inactive) and > 99 µM (inactive).
As to `Cc1oc2c(cc(NS(=O)(=O)c3ccc4c5c(cccc35)C(=O)N4)c3ccccc32)c1C(=O)OC(C)C`, the IC50 on Aminopeptidase N was 36.7 µM (active); at Estrogen receptor beta [8], 0.706 µM (not active); in experiment [9] it was 28.6 µM (active); in experiment [10], 63.2 µM (active); against Estrogen receptor beta [11], 34.8 µM (not active).
`Oc1ccc(Nc2nc(-c3cccs3)cs2)cc1`: the IC50 in experiment [9] was 14.3 µM (active); in experiment [10], 28.3 µM (active).
As for `CC1=C(C(=O)OCc2ccc3c(c2)OCO3)C(c2cccc([N+](=O)[O-])c2)NC(=O)N1` (stereo unspecified), the IC50 on Interleukin-8 was > 79 µM (inactive).
For `O=C(Nc1ccccc1)C1=C[C@@H](C2CCCCC2)C[C@@H](OCCCCO)O1`, the IC50 at Protein Wnt-3a was 47.7 µM (inactive).
Regarding `CCCCOCCCNC(=O)CNC(=O)c1sc2ccccc2c1Cl`, the IC50 (in [5]; in [6]; at Caspase-3; in experiment [7]) was > 99 µM (inactive) in each case.
